Data: ChEMBL document CHEMBL1201862, “PubChem BioAssay data set” (2004)
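Each compound was tested at five concentrations against cells in 96-well plates for 48 hours. GI50: concentration for 50% inhibition of growth.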 Activity calls are given as the source filed them. Cut-off read from the data, not from the text of the source: active = GI50 up to about 1.1 µM and inactive = higher.

Columns and labels:
Experiment in all cases: DTP human tumour cell line panel, 48 h
K562 = system: K562
SK-OV-3 = system: SK-OV-3
SNB-75 = system: SNB-75
UACC-62 = system: UACC-62
SW-620 = system: SW-620
NCI-H226 = system: NCI-H226
NCI-H522 = system: NCI-H522
MOLT-4 = system: MOLT-4
SK-MEL-5 = system: SK-MEL-5
SK-MEL-28 = system: SK-MEL-28
DU-145 = system: DU-145
RPMI-8226 = system: RPMI-8226
HCC 2998 = system: HCC 2998
SK-MEL-2 = system: SK-MEL-2
COLO 205 = system: COLO 205
LOX IMVI = system: LOX IMVI
MCF7 = system: MCF7
TK-10 = system: TK-10
UACC-257 = system: UACC-257

Compound	GI50 (K562)	GI50 (SK-OV-3)	GI50 (SNB-75)	GI50 (UACC-62)	GI50 (SW-620)	GI50 (NCI-H226)	GI50 (NCI-H522)	GI50 (MOLT-4)	GI50 (SK-MEL-5)	GI50 (SK-MEL-28)	GI50 (DU-145)	GI50 (RPMI-8226)	GI50 (HCC 2998)	GI50 (SK-MEL-2)	GI50 (COLO 205)	GI50 (LOX IMVI)	GI50 (MCF7)	GI50 (TK-10)	GI50 (UACC-257)
Nc1ccc(I)cn1	> 100 µM (inactive)	> 100 µM (inactive)	> 100 µM (inactive)	> 100 µM (inactive)	> 100 µM (inactive)	> 100 µM (inactive)	> 100 µM (inactive)	> 100 µM (inactive)	> 100 µM (inactive)	> 100 µM (inactive)	> 100 µM (inactive)	> 100 µM (inactive)	> 100 µM (inactive)	> 100 µM (inactive)	> 100 µM (inactive)	> 100 µM (inactive)	> 100 µM (inactive)	–	–
OCC1OC(O)C(/N=C\c2ccc3c(c2)OCO3)C(O)C1O (centres undefined)	–	> 100 µM (inactive)	> 100 µM (inactive)	> 100 µM (inactive)	> 100 µM (inactive)	> 100 µM (inactive)	> 100 µM (inactive)	> 100 µM (inactive)	> 100 µM (inactive)	> 100 µM (inactive)	> 100 µM (inactive)	> 100 µM (inactive)	> 100 µM (inactive)	> 100 µM (inactive)	> 100 µM (inactive)	> 100 µM (inactive)	> 100 µM (inactive)	> 100 µM (inactive)	> 100 µM (inactive)
CC(=O)O[C@H]1C(=O)[C@@]2(C)[C@H]([C@H](OC(=O)c3ccccc3)[C@]3(O)C[C@H](OC(=O)[C@H](O)[C@@H](NC(=O)c4ccc(N)cc4)c4ccccc4)C(C)=C1C3(C)C)[C@]1(OC(C)=O)CO[C@@H]1C[C@@H]2O	< 0.005 µM (active)	0.0134 µM (active)	< 0.005 µM (active)	0.00815 µM (active)	< 0.005 µM (active)	< 0.005 µM (active)	< 0.005 µM (active)	0.0129 µM (active)	< 0.005 µM (active)	> 50 µM (inactive)	0.0191 µM (active)	< 0.005 µM (active)	< 0.005 µM (active)	< 0.005 µM (active)	< 0.005 µM (active)	< 0.005 µM (active)	< 0.005 µM (active)	0.173 µM (active)	–
Cc1nnc2sc(Cc3cnc(N)s3)nn12	> 100 µM (inactive)	> 100 µM (inactive)	> 100 µM (inactive)	> 100 µM (inactive)	> 100 µM (inactive)	77.6 µM (inactive)	> 100 µM (inactive)	> 100 µM (inactive)	> 100 µM (inactive)	> 100 µM (inactive)	> 100 µM (inactive)	> 100 µM (inactive)	> 100 µM (inactive)	> 100 µM (inactive)	> 100 µM (inactive)	–	> 100 µM (inactive)	> 100 µM (inactive)	> 100 µM (inactive)
O=C(/C=C/c1cccc(Oc2ccccc2)c1)NCc1ccc(C(=O)NCc2ccccc2)cc1	> 100 µM (inactive)	4.55 µM (inactive)	12.1 µM (inactive)	79.8 µM (inactive)	> 100 µM (inactive)	27.5 µM (inactive)	98.9 µM (inactive)	> 100 µM (inactive)	> 100 µM (inactive)	> 100 µM (inactive)	> 100 µM (inactive)	> 100 µM (inactive)	> 100 µM (inactive)	26 µM (inactive)	> 100 µM (inactive)	> 100 µM (inactive)	> 100 µM (inactive)	46.5 µM (inactive)	> 100 µM (inactive)
O=C(Nc1ccc(C(F)(F)F)cc1[N+](=O)[O-])c1cccnc1	2.45 µM (inactive)	6.35 µM (inactive)	3.72 µM (inactive)	3.76 µM (inactive)	3.14 µM (inactive)	22.8 µM (inactive)	3.94 µM (inactive)	9.1 µM (inactive)	4.06 µM (inactive)	0.386 µM (active)	7.08 µM (inactive)	5.08 µM (inactive)	> 100 µM (inactive)	4.21 µM (inactive)	4.84 µM (inactive)	7.31 µM (inactive)	2.22 µM (inactive)	5.46 µM (inactive)	5.71 µM (inactive)
CC(=O)OCC(OC(C)=O)C(OC(C)=O)C(OC(C)=O)C(C=NN(C(C)=O)S(=O)(=O)c1ccc(/C=C2\NC(=O)NC2=O)cc1)OC(C)=O (centres undefined)	> 100 µM (inactive)	> 100 µM (inactive)	> 100 µM (inactive)	> 100 µM (inactive)	> 100 µM (inactive)	> 100 µM (inactive)	> 100 µM (inactive)	> 100 µM (inactive)	> 100 µM (inactive)	–	> 100 µM (inactive)	> 100 µM (inactive)	> 100 µM (inactive)	> 100 µM (inactive)	> 100 µM (inactive)	> 100 µM (inactive)	> 100 µM (inactive)	> 100 µM (inactive)	> 100 µM (inactive)
COc1nc2c(c(=O)n1C)N=C(c1ccc(Cl)cc1)CC(c1ccccc1)N2 (centres undefined)	6.78 µM (inactive)	41.5 µM (inactive)	14.3 µM (inactive)	17.6 µM (inactive)	46.3 µM (inactive)	16.1 µM (inactive)	17.9 µM (inactive)	17.6 µM (inactive)	19.5 µM (inactive)	54.1 µM (inactive)	33.3 µM (inactive)	24 µM (inactive)	17.7 µM (inactive)	18.7 µM (inactive)	36 µM (inactive)	21.2 µM (inactive)	14.8 µM (inactive)	–	26.5 µM (inactive)
N#Cc1ccc(/C=N/NC(=O)CSCC(=O)N/N=C/c2ccc(C#N)cc2)cc1	> 100 µM (inactive)	> 100 µM (inactive)	26.3 µM (inactive)	> 100 µM (inactive)	> 100 µM (inactive)	> 100 µM (inactive)	> 100 µM (inactive)	> 100 µM (inactive)	> 100 µM (inactive)	> 100 µM (inactive)	> 100 µM (inactive)	> 100 µM (inactive)	> 100 µM (inactive)	> 100 µM (inactive)	> 100 µM (inactive)	–	> 100 µM (inactive)	56 µM (inactive)	> 100 µM (inactive)
CC(=O)Oc1c2c(c(CC=C(C)C)c3c1C(=O)C1=C[C@@H]4CC5C(C)(C)OC(C/C=C(/C)C(=O)O)(C4=O)[C@@]15O3)OC(C)(CCC=C(C)C)C=C2 (some centres undefined)	0.409 µM (active)	0.585 µM (active)	0.323 µM (active)	0.282 µM (active)	0.091 µM (active)	0.313 µM (active)	0.0796 µM (active)	0.0769 µM (active)	0.378 µM (active)	0.188 µM (active)	0.287 µM (active)	0.184 µM (active)	0.61 µM (active)	0.305 µM (active)	0.195 µM (active)	0.104 µM (active)	0.173 µM (active)	0.134 µM (active)	0.384 µM (active)
C=C1C[C@@H]2O[C@H]3[C@H]4[C@@H](C[C@@H](C)[C@@H](OC(C)=O)[C@H]42)[C@@H](C)CO[C@@]3(C)[C@H](OC(=O)CCCCCCC)C[C@H]1O	22.9 µM (inactive)	–	16.7 µM (inactive)	16.3 µM (inactive)	21.4 µM (inactive)	10.5 µM (inactive)	16.4 µM (inactive)	22.9 µM (inactive)	15.5 µM (inactive)	17.4 µM (inactive)	14.9 µM (inactive)	16.1 µM (inactive)	16.9 µM (inactive)	20.3 µM (inactive)	16.4 µM (inactive)	13.2 µM (inactive)	21.4 µM (inactive)	17.2 µM (inactive)	16.7 µM (inactive)
Cc1cc(C)c2c(c1)C(=O)/C(=C/c1ccccc1C(=O)O)C2	52.5 µM (inactive)	–	40 µM (inactive)	89.5 µM (inactive)	84.3 µM (inactive)	30.9 µM (inactive)	20.6 µM (inactive)	34.4 µM (inactive)	59.8 µM (inactive)	> 100 µM (inactive)	> 100 µM (inactive)	55.1 µM (inactive)	51.3 µM (inactive)	> 100 µM (inactive)	–	71.9 µM (inactive)	88.7 µM (inactive)	> 100 µM (inactive)	> 100 µM (inactive)
N#Cc1c(N)c2c(c(-c3ccccc3)c1-c1ccccc1)C(=O)N(N)C2=O	> 100 µM (inactive)	> 100 µM (inactive)	> 100 µM (inactive)	> 100 µM (inactive)	> 100 µM (inactive)	> 100 µM (inactive)	38.6 µM (inactive)	70.6 µM (inactive)	87.9 µM (inactive)	> 100 µM (inactive)	> 100 µM (inactive)	32.7 µM (inactive)	> 100 µM (inactive)	> 100 µM (inactive)	> 100 µM (inactive)	–	> 100 µM (inactive)	> 100 µM (inactive)	> 100 µM (inactive)
Cc1cc(N=C2C=C(Br)C(=O)C(Br)=C2)cc(CN(CC(=O)O)CC(=O)O)c1O	> 100 µM (inactive)	> 100 µM (inactive)	> 100 µM (inactive)	> 100 µM (inactive)	> 100 µM (inactive)	> 100 µM (inactive)	> 100 µM (inactive)	> 100 µM (inactive)	> 100 µM (inactive)	> 100 µM (inactive)	> 100 µM (inactive)	> 100 µM (inactive)	> 100 µM (inactive)	> 100 µM (inactive)	> 100 µM (inactive)	–	> 100 µM (inactive)	–	> 100 µM (inactive)
Cc1cc(O)c2c(c1O)C(=O)c1cccc(O)c1C2=O [ISLANDICIN]	> 100 µM (inactive)	> 100 µM (inactive)	43.1 µM (inactive)	> 100 µM (inactive)	> 100 µM (inactive)	> 100 µM (inactive)	47.8 µM (inactive)	–	> 100 µM (inactive)	> 100 µM (inactive)	> 100 µM (inactive)	> 100 µM (inactive)	> 100 µM (inactive)	> 100 µM (inactive)	–	> 100 µM (inactive)	> 100 µM (inactive)	> 100 µM (inactive)	> 100 µM (inactive)
